Tested on: SEM cells
Experiment: cell viability relative to DMSO control; higher = less cytotoxic
Conditions: 48 h
How it was run: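 NOMO1 or SEM (500 cells/well) or P12-Ichikawa (1000 cells/well) leukemia cells were adapted for at least four passages in each medium. They were seeded in 1536-well plates (5 μl) and pin-dosed with library compounds in DMSO over an 11-point threefold series, 47 μM to 0.79 nM. CellTiter-Glo One luminescence was read after 48 h at 37°C. Viability is the per-plate percentage relative to DMSO wells, with cell-free wells as background.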

[1] = HPLM + 10% dialyzed FBS, 0.000781 µM
[2] = HPLM + 10% dialyzed FBS, 0.00234 µM
[3] = HPLM + 10% dialyzed FBS, 0.00702 µM
[4] = HPLM + 10% dialyzed FBS, 0.0211 µM
[5] = HPLM + 10% dialyzed FBS, 0.0632 µM
[6] = HPLM + 10% dialyzed FBS, 0.19 µM
[7] = HPLM + 10% dialyzed FBS, 0.569 µM
[8] = HPLM + 10% dialyzed FBS, 1.71 µM
[9] = HPLM + 10% dialyzed FBS, 5.12 µM
[10] = HPLM + 10% dialyzed FBS, 15.4 µM
[11] = HPLM + 10% dialyzed FBS, 46.1 µM
[12] = RPMI 5 mM glucose + 10% FBS, 0.000781 µM
[13] = RPMI 5 mM glucose + 10% FBS, 0.00234 µM
[14] = RPMI 5 mM glucose + 10% FBS, 0.00702 µM
[15] = RPMI 5 mM glucose + 10% FBS, 0.0211 µM
[16] = RPMI 5 mM glucose + 10% FBS, 0.0632 µM
[17] = RPMI 5 mM glucose + 10% FBS, 0.19 µM
[18] = RPMI 5 mM glucose + 10% FBS, 0.569 µM
[19] = RPMI 5 mM glucose + 10% FBS, 1.71 µM
[20] = RPMI 5 mM glucose + 10% FBS, 5.12 µM
[21] = RPMI 5 mM glucose + 10% FBS, 15.4 µM
[22] = RPMI 5 mM glucose + 10% FBS, 46.1 µM
[23] = RPMI 5 mM glucose + 10% dialyzed FBS, 0.000781 µM
[24] = RPMI 5 mM glucose + 10% dialyzed FBS, 0.00234 µM
[25] = RPMI 5 mM glucose + 10% dialyzed FBS, 0.00702 µM
[26] = RPMI 5 mM glucose + 10% dialyzed FBS, 0.0211 µM
[27] = RPMI 5 mM glucose + 10% dialyzed FBS, 0.0632 µM
[28] = RPMI 5 mM glucose + 10% dialyzed FBS, 0.19 µM
[29] = RPMI 5 mM glucose + 10% dialyzed FBS, 0.569 µM
[30] = RPMI 5 mM glucose + 10% dialyzed FBS, 1.71 µM
[31] = RPMI 5 mM glucose + 10% dialyzed FBS, 5.12 µM
[32] = RPMI 5 mM glucose + 10% dialyzed FBS, 15.4 µM
[33] = RPMI 5 mM glucose + 10% dialyzed FBS, 46.1 µM

Row | Structure (SMILES) | cell viability [1] | cell viability [2] | cell viability [3] | cell viability [4] | cell viability [5] | cell viability [6] | cell viability [7] | cell viability [8] | cell viability [9] | cell viability [10] | cell viability [11] | cell viability [12] | cell viability [13] | cell viability [14] | cell viability [15] | cell viability [16] | cell viability [17] | cell viability [18] | cell viability [19] | cell viability [20] | cell viability [21] | cell viability [22] | cell viability [23] | cell viability [24] | cell viability [25] | cell viability [26] | cell viability [27] | cell viability [28] | cell viability [29] | cell viability [30] | cell viability [31] | cell viability [32] | cell viability [33]
1 | CC[C@H]1OC(=O)[C@H](C)[C@@H](O[C@H]2C[C@@](C)(OC)[C@@H](O)[C@H](C)O2)[C@H](C)[C@@H](O[C@@H]2O[C@@H](C)C[C@H](N(C)C)[C@H]2O)[C@](C)(O)C[C@@H](C)C(=O)[C@H](C)[C@@H](O)[C@]1(C)O | 79.6% | 80.8% | 87.8% | 95.4% | 80.6% | 85.6% | 105% | 81.4% | 89.8% | 82.3% | 32.2% | 83% | 94.3% | 101% | 102% | 90% | 105% | 106% | 106% | 94.8% | 35% | 18.7% | 79.5% | 84.9% | 84.7% | 96.9% | 89.4% | 94.5% | 92.2% | 86.8% | 80.6% | 80.7% | 24.5%
2 | CCC1=C[C@@H]2CN(C1)Cc1c([nH]c3ccccc13)[C@@](C(=O)OC)(c1cc3c(cc1OC)N(C)[C@H]1[C@@](O)(C(=O)OC)[C@H](OC(C)=O)[C@]4(CC)C=CCN5CC[C@]31[C@@H]54)C2 | 119% | 117% | 110% | 92.7% | 75.9% | 32% | 25.5% | 24.1% | 23.6% | 26.7% | 17.3% |  |  |  |  |  |  |  |  |  |  |  | 108% | 106% | 99.7% | 86.5% | 62.9% | 30% | 23.9% | 22% | 24.9% | 26.3% | 12.4%
3 | O=C1Nc2ccccc2/C1=C1\Nc2ccccc2C1=O | 82.1% | 85.1% | 85.5% | 84.9% | 80.4% | 64.2% | 63.3% | 75% | 73.9% | 86.8% | 69.8% | 104% | 87.4% | 90.6% | 87.5% | 90.1% | 79.4% | 84% | 71.2% | 81.4% | 78.4% | 77.7% | 89.2% | 91.7% | 85.2% | 85.4% | 82.5% | 70.6% | 60.6% | 67% | 74.4% | 86% | 80.3%
4 | CC/1=C/N([C@@H]2C[C@@H](O)[C@H](CO)O2)C(=O)NC1=O | 78.6% | 82% | 71.8% | 94.7% | 74% | 75.8% | 86.4% | 84.1% | 54.1% | 67.9% | 30.7% | 113% | 97.1% | 100% | 97.4% | 76.5% | 99.3% | 115% | 95.8% | 53.2% | 80.4% | 38% | 81.7% | 74.4% | 76.5% | 79.2% | 45.6% | 64.3% | 73.7% | 62.3% | 44.3% | 56.9% | 29.3%
5 | COCCOC(=O)C/1=C(C)/NC/2=C(C1C3=CC=CC(=C3)O)/C(=O)CC(C2)C4=C(OC)C=CC=C4 (stereo not given) | 90.2% | 80.6% | 106% | 108% | 98.2% | 87.7% | 100% | 101% | 94.3% | 57% | 30.1% | 98.9% | 96.8% | 97.8% | 126% | 103% | 90.6% | 115% | 90.8% | 78.5% | 45.6% | 24.4% | 80.8% | 79.2% | 122% | 104% | 105% | 82.4% | 102% | 101% | 74.1% | 50.9% | 21.7%
6 | C#CCN(C)[C@H](C)Cc1ccccc1 | 32.3% | 83.6% | 87.3% | 83.5% | 70.2% | 91.8% | 93.1% | 90.2% | 89.5% | 87.2% | 92.5% | 34.7% | 91.5% | 103% | 107% | 83.4% | 95.9% | 62.6% | 70.9% | 95.7% | 86.3% | 90.5% | 27.1% | 89.6% | 99.3% | 97.9% | 70.8% | 89.6% | 81.1% | 86.9% | 89.1% | 93.8% | 86%
7 | CN1C(=O)\C(=C/C(=C1/NC2=C(F)C=C(I)C=C2)C(=O)NOCCO)C | 92.4% | 107% | 106% | 91.8% | 91.7% | 78.7% | 67.8% | 67.5% | 77.2% | 70.6% | 72.9% | 97.1% | 102% | 93.9% | 99% | 76.9% | 72.7% | 82% | 86% | 84% | 70.8% | 65% | 109% | 91.8% | 98% | 78.3% | 77.7% | 60.4% | 72.3% | 68.1% | 63.2% | 59% | 67.8%
